Source: US20150157615A1, “COMPOSITIONS AND METHOD FOR THE STIMULATION OF THE FEMALE AND MALE SEXUAL RESPONSE” (MULTICHEM S.A.S. DI GABRIELE SEGALLA, priority 2013, published 2015)

Assays:
human skin = conditions: application on human skin; IJSPT Vol. 6 No. 2, 2011; cited from earlier work
female sexual response = system: female sexual response
Experimental: (§1) The application is preferably carried out 4-5 minutes before intercourse, but can also be repeated during intercourse itself whenever required.

male sexual response = system: male sexual response
Experimental: as §1

skin [1] = conditions: in the concentrations provided by the present invention
skin [2] = conditions: Norwegian Food Safety Authority risk profile / Council of Europe monograph 2008; cited from earlier work
[3] = women, alone, at least 0.5% up to 5% by weight, topical
[4] = men, alone, at least 0.5% up to 5% by weight, topical

In the case of `CC1CCC(C(C)C)C(O)C1` (stereo not drawn) [menthol], the “flow of blood in the part treated topically” value (human skin) is listed as “reduces the flow of blood”.
In the case of `CC1CCC(C(C)C)C(OC(=O)c2cccnc2)C1` (stereo not drawn) [menthyl nicotinate, 5-Methyl-2-(isopropyl) cyclohexyl nicotinate], the “turgidity of the tissues / reddening or itching” value (female sexual response; in vivo) was “without however causing annoying reddening or itching”, the “latency period (period of time between orgasms)” value (female sexual response; [3]) was “Decrease” and the number of orgasms (female sexual response; [3]) was “Multiple orgasms”. For the same compound, the “stimulation of the clitoris” value (female sexual response; [3]) was “Intense and prolonged stimulation”, the “time necessary for reaching orgasm” value (female sexual response; [3]) was “Decrease” and the times of foreplay (female sexual response; [3]) was “Decrease”. For the same compound, the “duration of perception of cool tingling in the zone of application” value (female sexual response; women, depends on individual and concentration of active ingredient) was “up to one hour and more”, the “turgidity of the tissues / reddening or itching” value (male sexual response; in vivo) was “without however causing annoying reddening or itching” and the “flow of blood in the corpora cavernosa, turgidity and power of erection” value (male sexual response; [4]) was “A greater flow of blood”. For the same compound, the “retardant and reinvigorating effect” value (male sexual response; [4]) was “A retardant and at the same reinvigorating effect”, the sexual stimulation (male sexual response; [4]) was “more intense” and the “voluntary control of ejaculation” value (male sexual response; [4]) was “Greater ability”. The “rubefacient and itching effect” value (skin [1]) was “does not exhibit any unpleasant rubefacient and itching effect”.
In the case of `COC(=O)c1cccnc1` [methyl nicotinate], the “concentration at which highly irritating to the skin in some cases” value (skin [2]) is listed as 0.00137-0.003%.
